Results as given in patent publication US20070281903A1, “Morinda Citrifolia-Based Formulation 5-LOX And 15-LOX” (priority 2006, published 2007).
Where “and” joins values, the source holds several entries; their conditions need not be identical. Identical values can stand only once.

Target: T1, 5-Lipoxygenase (5-LOX) (Homo sapiens, UniProt P09917)
T1 construct: Human peripheral blood mononuclear leukocytes (PBML) were isolated through a Ficoll-Paque density gradient; endogenous in cells; host or cells: human peripheral blood mononuclear leukocytes (PBML)
T1 sequence (P09917 1-674): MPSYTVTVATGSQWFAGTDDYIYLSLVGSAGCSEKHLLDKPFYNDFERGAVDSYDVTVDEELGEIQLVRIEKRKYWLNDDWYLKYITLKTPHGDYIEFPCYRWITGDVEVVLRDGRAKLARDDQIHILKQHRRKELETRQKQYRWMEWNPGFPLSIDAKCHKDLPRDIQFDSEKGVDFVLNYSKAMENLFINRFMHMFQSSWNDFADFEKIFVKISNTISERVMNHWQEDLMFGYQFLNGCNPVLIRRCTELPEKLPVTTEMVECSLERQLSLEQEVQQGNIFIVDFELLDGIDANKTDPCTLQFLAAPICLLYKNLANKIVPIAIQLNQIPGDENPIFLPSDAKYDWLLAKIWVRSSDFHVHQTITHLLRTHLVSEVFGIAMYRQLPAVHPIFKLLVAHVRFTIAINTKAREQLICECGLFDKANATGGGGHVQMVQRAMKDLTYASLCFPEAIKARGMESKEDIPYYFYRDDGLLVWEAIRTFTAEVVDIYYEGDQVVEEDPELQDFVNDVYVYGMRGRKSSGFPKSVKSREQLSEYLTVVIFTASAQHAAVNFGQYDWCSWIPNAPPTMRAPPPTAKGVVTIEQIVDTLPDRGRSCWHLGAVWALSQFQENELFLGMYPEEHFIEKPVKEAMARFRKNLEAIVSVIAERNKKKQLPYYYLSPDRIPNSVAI
Assay: 5-Lipoxygenase inhibition assay, LTB4 by EIA in A23187-stimulated human PBML
Assay type: cell-based
Details: for Avg. % Inh.: average of duplicates; for % Inh. / Product (pg/well): single replicate
Text: Methods employed in this example were adapted from the scientific literature to maximize reliability and reproducibility. […] 110-13 (2000).
In this study, the 5-LOX source was human peripheral blood mononuclear cells (PBMNC) and the substrate was arachidonic acid having a general reaction of: arachidonic acid →5-LOX→5-HPETE→LTB4. Human peripheral blood mononuclear leukocytes (PBML) were isolated through a Ficoll-Paque density gradient. The inhibiting agent was processed Morinda citrifolia puree juice concentrate. Morinda citrifolia was pre-incubated with PBML (5×10^6 cell/ml) in HBSS buffer pH 7.4 at 37° C. for 15 minutes. […] Following neutralization with NaOH and centrifugation, the supernatant LTB4 is measured using an EIA kit.
The supernatant sample was utilized in same assay and protocols as outlined in Example One above, wherein the brown substance obtained was substituted for Morinda citrifolia puree juice.

## CC(Cc1ccc(O)c(O)c1)C(C)Cc1ccc(O)c(O)c1 (stereo not drawn) [NDGA, nordihydroguaretic acid]
Conc. 0.03 uM
  Avg. % Inh.: 6%
  % Inh.: 3.6% and 9.2%
  Product (pg/well): 3608.3 pg/well and 3403.4 pg/well
Conc. 0.1 uM
  Avg. % Inh.: 36%
  % Inh.: 36.1%
  Product (pg/well): 2433.3 pg/well
Conc. 0.3 uM
  Avg. % Inh.: 73%
  % Inh.: 73.5% and 72.8%
  Product (pg/well): 1083.1 pg/well and 1106.1 pg/well
Conc. 1 uM
  Avg. % Inh.: 97%
  % Inh.: 97.0% and 97.4%
  Product (pg/well): 233.7 pg/well and 217.9 pg/well
Conc. 3 uM
  Avg. % Inh.: 100%
  % Inh.: 99.7% and 100.8%
  Product (pg/well): 134.9 pg/well and 94.3 pg/well
